Laboratory results published in patent US20250367170A1, “TOPICAL ANGIOTENSIN II RECEPTOR BLOCKERS (ARBS) FOR TREATING EYE CONDITIONS” (The Cleveland Clinic Foundation, priority 2022, published 2025).

Experiments:
[1] = tested on: rabbit corneas after Descemetorhexis; test: Slit lamp opacity, scarring fibrosis and neovascularization one month after Descemetorhexis or sham surgery; type: in vivo, New Zealand White rabbits; settings: for intensity of opacity in a 2.5 mm circle of central cornea (ImageJ) vs vehicles or oral losartan alone: P<0.05
Experimental: All procedures involving animals were approved by the Institutional Animal Care and Use Committee (IACUC) at the Cleveland Clinic Foundation (Cleveland, OH, USA) and the Animal Care and Use Review Office of the Department of the Army (Fort Detrick, MD). All animals were treated in accordance with the tenets of the ARVO Statement for the Use of Animals in Ophthalmic and Vision Research. Twenty-eight 10- to 15-week-old female New Zealand White rabbits weighing 2.5 to 3.0 kg each were included in this study—four in each group.
The rabbits had general anaesthesia with 30 mg/kg ketamine hydrochloride and 5 mg/kg xylazine by IM injection. In addition, topical proparacaine hydrochloride 1% (Alcon, Ft Worth, TX, USA) was applied to each eye prior to the surgery. One cornea selected at random in each group either had sham surgery without Descemetorhexis or an 8 mm diameter central Descemet's membrane-endothelial excision. The time point of one month after surgery was selected for the study because myofibroblasts and fibrosis in the posterior cornea was maximal at this time point in a prior time course Descemetorhexis study (Sampaio et al., 2021). Descemetorhexis was performed as described in the prior study (Sampaio et al., 2021). Briefly, a wire lid speculum was placed into one eye of each rabbit and an 8 mm diameter gentian violet circle was marked on the epithelial surface for reference. A limbal entry incision was created with a 1.6 mm blade (Bausch and Lomb, Rochester, NY, USA) and 0.3 ml Healon OVD (Abbott Medical Optics Inc. Santa Ana, CA, USA) was injected into the anterior chamber. A reversed Sinskey hook (Katena, Denville, New Jersey, USA) was placed into the anterior chamber and an 8 mm diameter disc of Descemet's membrane and endothelium was excised underlying the 8 mm area previously marked on the anterior corneal surface, without a subsequent endothelial corneal transplant. No removal of Descemet's membrane or endothelium was performed in unwounded sham surgery eyes. Remaining Healon OVD was removed with a Simcoe irrigation and aspiration cannula (Bausch & Lomb, Storz, Rochester, NY, USA) and the anterior chamber was filled with balanced salt solution (BSS). A single 10-0 nylon suture was placed at the incision site to prevent leakage from the anterior chamber. One drop of ciprofloxacin (Alcon, Ft. Worth, TX, USA) was applied to the corneas immediately after surgery and four times a day until the epithelium entry wound healed at approximately 2 days.
The oral solution was prepared with 5 ml distilled water+50 ml ora-plus (suspending vehicle—Perrigo, Dublin, Ireland)+45 ml Ora-sweet (flavored syrup vehicle—Perrigo).
After one month of treatment, study eyes were dilated with two drops of 1% tropicamide (Akom Co., Lake Forest, IL) for thirty minutes. After general anaesthesia, the study eye in each rabbit had standardized slit lamp photographs at 20× magnification with a Haag Streit (Mason, OH, USA) BX900 slit lamp photography system using identical lighting position and intensity. For each study eye, the intensity of a 2.5 mm diameter central circle (not including the light reflex, examples shown in FIG. 1) was determined using ImageJ 1.53a analysis software. Statistical comparisons of the intensity of opacity was performed using the Kruskal-Wallis test followed by post-hoc Dunn's-Bonferroni test and p<0.05 was considered statistically significant

[2] = tested on: α-smooth muscle actin (SMA) marker for myofibroblasts; test: IHC for SMA, area of SMA-positive posterior fibrotic stroma (QuPath) after Descemetorhexis; type: in vivo, New Zealand White rabbits
Experimental: At one month after surgery and treatment, an intravenous injection of 100 mg/kg Beuthanasia (Shering-Plough, Kenilworth, NJ) was given for euthanasia with the animals under general anaesthesia. Sharp Westcott scissors (Fairfield, CT, USA) and 0.12 forceps (Storz, St. Louis, MO) were used to remove the comeo-scleral rims of the sham unwounded and DMR eyes without touching the cornea. Each cornea was set in the center of a 24×24×5 mm mold (Fisher Scientific, Pittsburgh, PA, USA) and the mold was filled in liquid OCT compound (Sakura Finetek, Torrance, CA, USA). The molds and cornea-scleral rims were quick frozen on dry ice and stored at −80° C. until sections were cut.
Each OCT block was bisected in the exact center of the cornea, and 8 μm thick transverse sections were cut from the central cornea within the previous DMR injury or unwounded sham surgery corneas with a cryostat (HM 505M; Micron GmbH, Walldorf, Germany) and three sections per slide were placed on 25 mm×75 mm×1 mm Superfrost Plus microscope slides (Fisher Scientific, Pittsburgh, PA, USA). Slides were maintained at −20° C. until immunohistochemistry.
Duplex immunohistochemistry (IHC) was performed after masking of slides by a researcher not involved in the analysis using previously described methods (de Oliveira et al., 2021) using primary antibodies (Table 2) confirmed by western blotting and IHC to recognize rabbit antigens or isotypic control antibodies (ThermoFisher Scientific, Waltham, MA), and secondary fluorescent tagged antibodies (Table 3).
The area of the SMA-positive posterior fibrotic stroma was quantitated with the original groups masked to the analyzer by standardized photography with a lOx objective on a Leica DM6B upright microscope equipped with an automated stage and Leica 7000 T camera using the LAS X software (Leica Microsystems, GmbH, Wetzlar, Germany). The area of the SMA-positive posterior stromal fibrosis was measured by manually outlining the area on the cornea sections with calibrated QuPath v0.2.3 software using previously described methods (Bankhead et al., 2017). Statistical analysis for the area of SMA-positive fibrosis was performed using the Kruskal-Wallis test followed by post-hoc Dunn's-Bonferroni test and p<0.05 was considered statistically significant.

collagen type IV = test: IHC stromal collagen type IV pixels (ImageJ) one month after -9D PRK; type: in vivo, New Zealand white rabbits
Experimental: Rabbits were euthanized while under ketamine-xylazine general anesthesia with 100 mg/kg Beuthanasia (Shering-Plough, Kenilworth, NJ, USA) by intravenous injection followed by bilateral pneumothorax. The corneo-scleral rims were removed with sharp Westcott scissors (Fairfield, CT, USA) and 0.12 forceps (Storz, St Louis, MO, USA). The corneo-scleral rim was then centered in a 24-mm×24-mm×5-mm mold (Fisher Scientific, Pittsburgh, PA, USA) that was filled with optimal cutting temperature (OCT) compound (Sakura Finetek, Torrance, CA, USA) and quick frozen on dry ice. Blocks were stored at −80° C. until sectioning. Blocks were bisected at the center of the cornea and 10-pm-thick transverse sections were cut from the central cornea with a cryostat (HM 505M; Micron 5 GmbH, Walldorf, Germany). Three sections from each cornea were placed on each 25-mm×75-mm×1-mm Superfrost Plus microscope slide (Fisher Scientific). Slides with sections were maintained at −20° C. prior to immunohistochemistry (IHC).
All images were converted to 300 DPI 900 pixel width×672 pixel height images with Photoshop 22.1.1 (Adobe, San Jose, CA). The mean pixels of stromal α-SMA or stromal collagen type IV were determined in a 900-pixel wide×235-pixel high rectangle (for either α-SMA or collagen type IV quantitation) with ImageJ in three sections for each cornea using the image panels showing only the color of interest. […]

[3] = Descemetorhexis, topical losartan

For `CCCCc1nc(Cl)c(CO)n1Cc1ccc(-c2ccccc2-c2nn[nH]n2)cc1` [losartan], the “scarring fibrosis and neovascularization compared to vehicle control corneas” value ([1]; Descemetorhexis, oral 5 mg/kg three times a day) was “no difference”, the “scarring fibrosis (slit lamp)” value ([1]; Descemetorhexis, topical 0.1 mg/ml six times per day) was “overall decrease” and the “changes in corneal opacity and neovascularization compared with topical losartan alone” value ([1]; Descemetorhexis, topical 0.1 mg/ml six times per day and oral 5 mg/kg three times a day) was “not different”. For the same molecule, the “intensity of opacity in a 2.5 mm circle of central cornea (ImageJ) vs vehicles or oral losartan alone” value ([1]; Descemetorhexis, topical and oral losartan) was “significant decrease”, the “corneal neovascularization that developed after Descemetorhexis” value [1, 3] was “reduced” and the “intensity of opacity in a 2.5 mm circle of central cornea (ImageJ) vs vehicles or oral losartan alone” value [1, 3] was “significant decrease”. For the same molecule, the “effect on the transparency of sham unwounded corneas” value ([1]; oral 5 mg/kg three times per day) was “no effect”, the “effect on the transparency of sham unwounded corneas” value ([1]; topical 0.1 mg/ml six times per day) was “no effect” and the “posterior fibrosis compared with topical and oral vehicle” value ([2]; Descemetorhexis, oral 5 mg/kg three times per day, one month) was “similar”. The “mean SMA-positive posterior fibrotic area vs vehicles or topical and oral losartan” value ([2]; Descemetorhexis, oral losartan alone, one month) was “not statistically significantly different”, the “mean SMA-positive posterior fibrotic area compared to the other Descemetorhexis groups” value ([2]; Descemetorhexis, topical 0.1 mg/ml six times a day, one month) was “significantly lower” and the “SMA-positive fibrotic zone in the posterior cornea” value ([2]; Descemetorhexis, topical 0.1 mg/ml six times per day, one month) was “marked decrease”. The “SMA-positive fibrosis in the posterior cornea” value ([2]; Descemetorhexis, topical six times per day and oral three times per day, one month) was “decrease”, the “SMA-positive posterior corneal fibrosis in uninjured corneas” value ([2]; oral three times a day) was “did not develop” and the “SMA-positive posterior corneal fibrosis in uninjured corneas” value ([2]; topical six times a day) was “did not develop”. The “collagen type IV detected in the underlying anterior stroma (IHC) compared with vehicle” value (collagen type IV) was “far smaller amounts”.
